Results on 21 molecules are retold here after ChEMBL document CHEMBL5291721, “A preclinical secondary pharmacology resource illuminates target-adverse drug reaction associations of marketed drugs” (Nat Commun, 2023).

Some results are limits rather than exact numbers.

One experiment addresses T1, Progesterone receptor (Homo sapiens, UniProt P06401).
T1 sequence (P06401 whole entry): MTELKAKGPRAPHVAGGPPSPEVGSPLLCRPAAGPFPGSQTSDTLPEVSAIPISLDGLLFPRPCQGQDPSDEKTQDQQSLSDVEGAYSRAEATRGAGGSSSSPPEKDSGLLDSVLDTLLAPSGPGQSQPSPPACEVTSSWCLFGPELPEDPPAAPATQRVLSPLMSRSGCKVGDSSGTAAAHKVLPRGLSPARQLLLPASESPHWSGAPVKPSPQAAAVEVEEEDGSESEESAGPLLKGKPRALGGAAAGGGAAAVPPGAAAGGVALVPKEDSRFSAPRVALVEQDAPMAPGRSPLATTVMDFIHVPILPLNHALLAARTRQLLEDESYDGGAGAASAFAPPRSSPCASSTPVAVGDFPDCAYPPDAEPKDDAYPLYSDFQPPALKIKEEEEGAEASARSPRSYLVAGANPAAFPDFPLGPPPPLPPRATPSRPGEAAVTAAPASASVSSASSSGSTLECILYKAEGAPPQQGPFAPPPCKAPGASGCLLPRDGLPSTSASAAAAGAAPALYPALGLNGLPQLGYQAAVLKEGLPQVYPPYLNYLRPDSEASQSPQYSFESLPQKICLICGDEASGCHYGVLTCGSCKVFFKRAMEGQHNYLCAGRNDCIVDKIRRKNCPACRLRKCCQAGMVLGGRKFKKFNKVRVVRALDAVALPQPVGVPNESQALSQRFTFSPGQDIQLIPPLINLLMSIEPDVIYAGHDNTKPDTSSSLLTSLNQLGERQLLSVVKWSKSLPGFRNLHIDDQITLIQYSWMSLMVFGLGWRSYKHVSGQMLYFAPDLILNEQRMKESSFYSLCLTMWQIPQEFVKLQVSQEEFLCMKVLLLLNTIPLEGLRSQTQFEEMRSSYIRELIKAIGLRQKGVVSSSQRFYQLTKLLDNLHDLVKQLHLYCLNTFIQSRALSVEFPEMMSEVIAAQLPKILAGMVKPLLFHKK

Experiment [1] deals with 5-hydroxytryptamine receptor 2B (Homo sapiens, UniProt P41595).
For a further experiment, the target named is Glucagon receptor (Homo sapiens, UniProt P47871).
Experiment [2] addresses T2, Androgen receptor (Rattus norvegicus, UniProt P15207).
T2 sequence (P15207 whole entry): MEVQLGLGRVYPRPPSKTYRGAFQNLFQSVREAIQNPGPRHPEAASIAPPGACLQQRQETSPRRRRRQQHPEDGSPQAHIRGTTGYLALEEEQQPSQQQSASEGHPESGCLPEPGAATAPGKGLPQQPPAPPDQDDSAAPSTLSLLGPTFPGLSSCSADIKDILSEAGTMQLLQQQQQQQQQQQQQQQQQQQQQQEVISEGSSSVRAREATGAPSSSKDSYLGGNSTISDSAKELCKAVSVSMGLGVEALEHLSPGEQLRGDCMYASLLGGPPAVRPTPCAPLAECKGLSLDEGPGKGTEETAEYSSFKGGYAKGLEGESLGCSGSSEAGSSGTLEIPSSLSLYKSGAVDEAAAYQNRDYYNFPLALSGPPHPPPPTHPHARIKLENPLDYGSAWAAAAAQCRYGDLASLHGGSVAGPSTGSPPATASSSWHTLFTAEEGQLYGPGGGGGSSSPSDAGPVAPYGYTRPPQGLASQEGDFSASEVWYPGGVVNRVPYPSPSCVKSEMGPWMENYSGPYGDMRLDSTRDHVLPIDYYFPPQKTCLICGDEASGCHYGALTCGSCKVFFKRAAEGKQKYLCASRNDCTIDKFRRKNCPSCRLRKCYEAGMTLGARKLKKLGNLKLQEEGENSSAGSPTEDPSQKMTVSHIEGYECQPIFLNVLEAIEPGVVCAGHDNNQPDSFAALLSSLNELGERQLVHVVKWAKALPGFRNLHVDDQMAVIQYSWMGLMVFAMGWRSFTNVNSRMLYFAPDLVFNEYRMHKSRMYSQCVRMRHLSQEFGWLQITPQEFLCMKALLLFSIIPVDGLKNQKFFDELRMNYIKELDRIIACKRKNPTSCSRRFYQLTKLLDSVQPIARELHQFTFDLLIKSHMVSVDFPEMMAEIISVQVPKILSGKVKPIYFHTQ

The target in experiment [3] is T3, Endothelin receptor type B (Homo sapiens, UniProt P24530).
T3 sequence (P24530 whole entry): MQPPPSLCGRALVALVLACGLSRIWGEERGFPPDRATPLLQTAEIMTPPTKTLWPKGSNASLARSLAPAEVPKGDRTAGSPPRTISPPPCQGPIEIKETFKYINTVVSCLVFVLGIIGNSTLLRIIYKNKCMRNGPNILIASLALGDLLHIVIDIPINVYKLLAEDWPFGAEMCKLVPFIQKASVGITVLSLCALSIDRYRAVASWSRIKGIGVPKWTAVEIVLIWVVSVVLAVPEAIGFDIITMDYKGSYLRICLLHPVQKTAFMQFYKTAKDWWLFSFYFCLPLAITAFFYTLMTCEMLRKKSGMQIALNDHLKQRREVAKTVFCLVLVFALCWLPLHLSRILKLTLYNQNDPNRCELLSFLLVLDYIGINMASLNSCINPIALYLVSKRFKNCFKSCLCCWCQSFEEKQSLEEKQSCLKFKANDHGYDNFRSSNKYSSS

In experiment [4] the target is T4, 5-hydroxytryptamine receptor 1A (Homo sapiens, UniProt P08908).
T4 sequence (P08908 whole entry): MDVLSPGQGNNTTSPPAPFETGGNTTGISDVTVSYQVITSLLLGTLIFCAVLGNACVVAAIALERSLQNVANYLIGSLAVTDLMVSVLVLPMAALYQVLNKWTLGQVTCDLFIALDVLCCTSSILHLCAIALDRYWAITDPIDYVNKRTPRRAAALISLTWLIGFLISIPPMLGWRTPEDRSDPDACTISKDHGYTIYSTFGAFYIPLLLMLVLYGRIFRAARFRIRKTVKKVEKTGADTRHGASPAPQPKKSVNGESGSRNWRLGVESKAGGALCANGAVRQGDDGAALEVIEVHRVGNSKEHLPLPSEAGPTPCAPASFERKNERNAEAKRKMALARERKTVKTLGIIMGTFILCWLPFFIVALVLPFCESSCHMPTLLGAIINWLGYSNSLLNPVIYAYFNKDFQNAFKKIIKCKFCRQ

Experiment [5] has as its target T2, Androgen receptor. Type of experiment: functional.
Also: assay procedure not described here.

Chain of 5-hydroxytryptamine receptor 2B (P41595 whole entry): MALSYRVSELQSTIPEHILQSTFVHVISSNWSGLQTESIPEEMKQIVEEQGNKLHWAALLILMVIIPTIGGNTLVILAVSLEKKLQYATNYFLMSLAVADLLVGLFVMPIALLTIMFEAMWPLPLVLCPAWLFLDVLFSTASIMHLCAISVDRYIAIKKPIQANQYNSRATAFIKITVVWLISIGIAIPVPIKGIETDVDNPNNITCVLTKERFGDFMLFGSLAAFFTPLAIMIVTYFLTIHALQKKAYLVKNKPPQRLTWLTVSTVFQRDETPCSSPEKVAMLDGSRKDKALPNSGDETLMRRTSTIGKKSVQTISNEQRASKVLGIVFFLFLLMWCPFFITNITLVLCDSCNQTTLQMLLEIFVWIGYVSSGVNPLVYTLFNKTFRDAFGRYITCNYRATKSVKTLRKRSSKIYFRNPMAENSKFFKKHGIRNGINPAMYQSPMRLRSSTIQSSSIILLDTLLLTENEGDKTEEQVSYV
Chain of Glucagon receptor (P47871 whole entry): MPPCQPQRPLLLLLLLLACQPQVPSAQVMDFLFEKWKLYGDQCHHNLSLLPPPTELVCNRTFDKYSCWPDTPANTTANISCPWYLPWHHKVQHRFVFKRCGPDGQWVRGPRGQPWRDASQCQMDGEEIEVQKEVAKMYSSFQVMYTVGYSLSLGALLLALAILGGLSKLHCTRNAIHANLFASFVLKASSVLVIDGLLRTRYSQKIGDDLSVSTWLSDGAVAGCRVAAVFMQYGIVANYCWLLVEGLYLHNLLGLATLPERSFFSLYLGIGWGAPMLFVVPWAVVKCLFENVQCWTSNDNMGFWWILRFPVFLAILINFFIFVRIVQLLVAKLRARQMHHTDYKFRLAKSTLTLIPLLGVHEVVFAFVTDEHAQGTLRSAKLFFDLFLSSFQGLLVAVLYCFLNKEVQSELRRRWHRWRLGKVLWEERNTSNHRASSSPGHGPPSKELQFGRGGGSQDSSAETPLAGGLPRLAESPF

Broadly, the AC50 is the concentration giving half of the maximal activity seen. Turning to `O=C(/C=C/c1cccc(S(=O)(=O)Nc2ccccc2)c1)NO` [BELINOSTAT], the AC50 was > 30 µM on Progesterone receptor; > 10 µM in experiment [1]; > 10 µM on Glucagon receptor; > 30 µM on Androgen receptor [2]; > 10 µM in experiment [3]; > 10 µM in experiment [4].
Regarding `CCOC(=O)c1c(CSc2ccccc2)n(C)c2cc(Br)c(O)c(CN(C)C)c12` [UMIFENOVIR], the AC50 at Androgen receptor [5] is > 30 µM.
Regarding `COc1ccc([C@@H]2CC(=O)c3c(O)cc(O)cc3O2)cc1O` [HESPERETIN], the AC50 on Androgen receptor [2] is > 10 µM.
For `CCCN1CC(NS(=O)(=O)N(CC)CC)CC2Cc3c(O)cccc3CC21` (stereo not given) [QUINAGOLIDE], the half-maximal activity concentration (AC50) at Androgen receptor [5] was > 30 µM; in experiment [1], 0.324 µM.
`C=C1c2cccc(O)c2C(=O)C2=C(O)[C@]3(O)C(=O)C(C(N)=O)=C(O)[C@@H](N(C)C)[C@@H]3[C@@H](O)[C@H]12` [METHACYCLINE]: at Androgen receptor [2], the AC50 was > 30 µM.
Take `CCC1(c2ccc(N)cc2)CCC(=O)NC1=O` (stereo not given) [AMINOGLUTETHIMIDE]: the half-maximal activity concentration (AC50) on Androgen receptor [5] was > 30 µM.
Regarding `CC(=O)O[C@]1(C(C)=O)CC[C@H]2[C@@H]3C=C(Cl)C4=CC(=O)[C@@H]5C[C@@H]5[C@]4(C)[C@H]3CC[C@@]21C` [CYPROTERONE ACETATE], the half-maximal activity concentration (AC50) in experiment [1] and in experiment [4] was > 10 µM each time.
As to `CN(Cc1cnc2nc(N)nc(N)c2n1)c1ccc(C(=O)N[C@@H](CCC(=O)O)C(=O)O)cc1` [METHOTREXATE], the AC50 is > 30 µM at Progesterone receptor; > 10 µM in experiment [1]; > 30 µM on Glucagon receptor; > 30 µM at Androgen receptor [2]; > 30 µM in experiment [3]; > 10 µM in experiment [4].
On to `O=S1(=O)CCN(CN2CCS(=O)(=O)NC2)CN1` [TAUROLIDINE], for which, on Androgen receptor [5], the half-maximal activity concentration (AC50) was > 30 µM.
Turning to `C[C@@H]1C[C@H]2[C@@H]3C[C@H](F)C4=CC(=O)C=C[C@]4(C)[C@@]3(F)[C@@H](O)C[C@]2(C)[C@@]1(OC(=O)c1ccco1)C(=O)SCF` [FLUTICASONE FUROATE], the AC50 (in experiment [1]; on Glucagon receptor; in experiment [3]; in experiment [4]) was > 10 µM each time.
On to `C[N+](C)(C)CCOP(=O)([O-])OC[C@H](O)CO`, for which the AC50 on Androgen receptor [5] was > 30 µM.
With `CN(C)CCCN1c2ccccc2CCc2ccccc21` [IMIPRAMINE], the concentration at half-maximal activity (AC50) on Progesterone receptor was > 30 µM; in experiment [1] it was 0.319 µM; at Glucagon receptor it was > 30 µM; in experiment [3] it was > 30 µM; in experiment [4], > 10 µM.
With `CN[C@@H](C)[C@@H](O)c1ccccc1` [PSEUDOEPHEDRINE], the half-maximal activity concentration (AC50) at Progesterone receptor was > 30 µM; at Glucagon receptor, > 30 µM; in experiment [3], > 30 µM; in experiment [4], > 10 µM.
As to `O=C(O)COCCN1CCN(C(c2ccccc2)c2ccc(Cl)cc2)CC1` (stereo not given) [CETIRIZINE], the AC50 was > 30 µM on Progesterone receptor, > 30 µM on Glucagon receptor, > 30 µM in experiment [3] and > 10 µM in experiment [4].
`O=C1OC(OC(=O)c2cccnc2Nc2cccc(C(F)(F)F)c2)c2ccccc21` (stereo not given) [TALNIFLUMATE]: the concentration at half-maximal activity (AC50) on Androgen receptor [5] was > 30 µM.
On to `Cc1ccccc1-n1c(CF)nc2ccc(N)cc2c1=O` [AFLOQUALONE], for which the half-maximal activity concentration (AC50) at Androgen receptor [2] is > 30 µM.
On to `CN(C)Cc1nnc2n1-c1ccc(Cl)cc1C(c1ccccc1)=NC2` [ADINAZOLAM], for which the concentration at half-maximal activity (AC50) at Androgen receptor [2] is > 10 µM.
For `CCOC(=O)C1=C(C)NC(C)=C(C(=O)OCC)C1c1ccccc1/C=C/C(=O)OC(C)(C)C` [LACIDIPINE], on Androgen receptor [5], the AC50 is > 30 µM.
On the same count and under the same terms, under `CN(C)C/C=C/C(=O)Nc1cc2c(Nc3ccc(F)c(Cl)c3)ncnc2cc1O[C@H]1CCOC1` [AFATINIB] stands > 30 µM.
Regarding `CC(O)(CS(=O)(=O)c1ccc(F)cc1)C(=O)Nc1ccc(C#N)c(C(F)(F)F)c1` (stereo not given) [BICALUTAMIDE], the concentration at half-maximal activity (AC50) on Progesterone receptor is > 30 µM; in experiment [1], > 10 µM; on Glucagon receptor, > 30 µM; in experiment [3], > 30 µM; in experiment [4] it was > 10 µM.
For `CNCCc1ccc(OC(=O)C(C)C)c(OC(=O)C(C)C)c1` [IBOPAMINE], the AC50 on Androgen receptor [5] is > 30 µM.
